Test results as given in PubChem BioAssay (NCI).
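Grown in 96-well plates, cells were treated for 48 hours with each compound at five concentrations. Insufficient inhibition: endpoint recorded as highest concentration tested. The concentration for 50% growth inhibition is given as GI50. TGI denotes the concentration required for complete inhibition of growth.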

Tests used:
Test in all cases: inhibition of tumour cell growth, NCI panel, 48 h
SK-OV-3 ovarian = test system: SK-OV-3 ovarian
CAKI-1 renal = test system: CAKI-1 renal
HOP-92 NSCLC = test system: HOP-92 NSCLC
A498 renal = test system: A498 renal
CCRF-CEM leukemia = test system: CCRF-CEM leukemia
UACC-62 melanoma = test system: UACC-62 melanoma
HT29 colon = test system: HT29 colon
HS 578T breast = test system: HS 578T breast
DU-145 prostate = test system: DU-145 prostate
T-47D breast = test system: T-47D breast

Structure (SMILES): O=c1cccccc1[O-].O=c1cccccc1[O-].O=c1cccccc1[O-].[Ce+3]
- TGI (SK-OV-3 ovarian): 72.3 µM
- TGI (CAKI-1 renal): > 100 µM
- TGI (HOP-92 NSCLC): 89.9 µM
- GI50 (A498 renal): 30.8 µM
- TGI (A498 renal): > 100 µM
- TGI (CCRF-CEM leukemia): > 100 µM
- TGI (UACC-62 melanoma): 40.4 µM
- TGI (HT29 colon): > 100 µM

Structure (SMILES): CSc1ccc(SC2c3ccc(C)cc3Oc3nc(N)c(C#N)c(N)c32)cc1 (stereo not drawn)
- GI50 (SK-OV-3 ovarian): 1.83 µM
- TGI (SK-OV-3 ovarian): 3.29 µM
- GI50 (HOP-92 NSCLC): 1.9 µM
- TGI (HOP-92 NSCLC): 3.76 µM
- GI50 (A498 renal): 2.05 µM
- TGI (A498 renal): 3.95 µM
- GI50 (HS 578T breast): 2.19 µM
- TGI (HS 578T breast): 5.53 µM
- GI50 (UACC-62 melanoma): 1.61 µM
- TGI (UACC-62 melanoma): 2.97 µM
- GI50 (HT29 colon): 2.11 µM
- TGI (HT29 colon): 4.37 µM
- GI50 (DU-145 prostate): 1.85 µM
- TGI (DU-145 prostate): 3.26 µM
- GI50 (T-47D breast): 1.9 µM
- TGI (T-47D breast): 4.84 µM

Structure (SMILES): Cc1ccc(C2=C(c3ccc(C)cc3)C(c3ccc(C)cc3)=C(c3ccc(C)cc3)C2=O)cc1
- TGI (SK-OV-3 ovarian): > 100 µM
- TGI (A498 renal): > 100 µM
- TGI (CCRF-CEM leukemia): > 100 µM
- TGI (HT29 colon): > 100 µM

Structure (SMILES): O=C(CCSc1ccnc2c(C(F)(F)F)cccc12)N/N=C/c1cc(Cl)c(Cl)cc1Cl
- GI50 (SK-OV-3 ovarian): 23.7 µM
- TGI (SK-OV-3 ovarian): 54.7 µM
- GI50 (CAKI-1 renal): 21.4 µM
- TGI (CAKI-1 renal): 43.4 µM
- GI50 (HOP-92 NSCLC): 16.3 µM
- TGI (HOP-92 NSCLC): 34.3 µM
- GI50 (CCRF-CEM leukemia): 25.4 µM
- TGI (CCRF-CEM leukemia): 62.1 µM
- GI50 (HS 578T breast): 23.9 µM
- TGI (HS 578T breast): 49.8 µM
- GI50 (UACC-62 melanoma): 15.4 µM
- TGI (UACC-62 melanoma): 39.7 µM
- GI50 (HT29 colon): 17.8 µM
- TGI (HT29 colon): 33.9 µM
- GI50 (DU-145 prostate): 18.2 µM
- TGI (DU-145 prostate): 40 µM
- GI50 (T-47D breast): 22 µM
- TGI (T-47D breast): 59.9 µM

Structure (SMILES): CCOC(=O)N1C(c2ccccc2)C=CC(c2ccccc2)N1C(=O)OCC (stereo not drawn)
- TGI (CAKI-1 renal): > 100 µM
- TGI (HOP-92 NSCLC): > 100 µM
- TGI (A498 renal): > 100 µM
- TGI (CCRF-CEM leukemia): > 100 µM
- TGI (UACC-62 melanoma): > 100 µM
- TGI (HT29 colon): > 100 µM

Structure (SMILES): COc1ccc2c(CCNC(=O)/C=C/c3ccccc3)c(C(C)=O)[nH]c2c1[N+](=O)[O-]
- TGI (CAKI-1 renal): 44.5 µM
- TGI (A498 renal): 76.5 µM
- TGI (CCRF-CEM leukemia): > 100 µM
- TGI (UACC-62 melanoma): 36.1 µM
- TGI (HT29 colon): > 100 µM

Structure (SMILES): Fc1ccc2c(c1)C1=C(CO2)C(c2ccc(Cl)cc2)NC(=S)N1 (stereo not drawn)
- GI50 (SK-OV-3 ovarian): 68.8 µM
- TGI (SK-OV-3 ovarian): > 100 µM
- GI50 (CAKI-1 renal): 19.1 µM
- TGI (CAKI-1 renal): 59.6 µM
- GI50 (HOP-92 NSCLC): 61 µM
- TGI (HOP-92 NSCLC): > 100 µM
- GI50 (A498 renal): 17.4 µM
- TGI (A498 renal): 73.7 µM
- GI50 (UACC-62 melanoma): 18.4 µM
- TGI (UACC-62 melanoma): 63.7 µM
- GI50 (HT29 colon): 51.3 µM
- TGI (HT29 colon): > 100 µM
- GI50 (DU-145 prostate): 28 µM
- TGI (DU-145 prostate): > 100 µM
- GI50 (T-47D breast): 63.2 µM
- TGI (T-47D breast): > 100 µM

Structure (SMILES): NCc1c(C(N)=O)ncn1Cc1ccccc1
- TGI (SK-OV-3 ovarian): > 100 µM
- TGI (CAKI-1 renal): > 100 µM
- TGI (HOP-92 NSCLC): > 100 µM
- TGI (A498 renal): > 100 µM
- TGI (CCRF-CEM leukemia): > 100 µM
- TGI (UACC-62 melanoma): > 100 µM
- TGI (HT29 colon): > 100 µM

Structure (SMILES): Cn1c(=O)c(C(=O)NC(=O)NCCCCCOC(=O)CCCCCCCCCCC(=O)OCCCCCNC(=O)NC(=O)c2cn(Cc3ccccc3)c(=O)n(C)c2=O)cn(Cc2ccccc2)c1=O
- TGI (SK-OV-3 ovarian): > 100 µM
- TGI (CAKI-1 renal): > 100 µM
- TGI (HOP-92 NSCLC): > 100 µM
- TGI (A498 renal): > 100 µM
- TGI (CCRF-CEM leukemia): > 100 µM
- TGI (UACC-62 melanoma): > 100 µM
- TGI (HT29 colon): > 100 µM

Structure (SMILES): O=C(Nc1ccc(Br)cc1)C(=O)C(C(=O)c1ccccc1F)C1OC(=O)c2ccccc21 (stereo not drawn)
- TGI (SK-OV-3 ovarian): > 100 µM
- TGI (CAKI-1 renal): 94.2 µM
- TGI (HOP-92 NSCLC): 65.2 µM
- TGI (A498 renal): > 100 µM
- TGI (CCRF-CEM leukemia): > 100 µM
- TGI (UACC-62 melanoma): 28.1 µM
- TGI (HT29 colon): > 100 µM

Structure (SMILES): CCOC(=O)C(C)(C)Oc1ccc2c(-c3ccc(Cl)cc3)c(-c3ccc(Cl)cc3)c(=O)oc2c1
- TGI (A498 renal): > 100 µM
- TGI (CCRF-CEM leukemia): > 100 µM
- TGI (UACC-62 melanoma): > 100 µM
- TGI (HT29 colon): > 100 µM
